Results published in patent publication US11261186B2, “Biaryl derivative as GPR120 agonist” (LG CHEM, LTD., priority 2014, dated 2022).
pEC50: −log10 of the molar value.

Target: T1, hGPR120 (Homo sapiens, UniProt Q5NUL3)
T1 construct: expressed in transfected cells; host or cells: CHO-K1
T1 sequence (Q5NUL3 1-361): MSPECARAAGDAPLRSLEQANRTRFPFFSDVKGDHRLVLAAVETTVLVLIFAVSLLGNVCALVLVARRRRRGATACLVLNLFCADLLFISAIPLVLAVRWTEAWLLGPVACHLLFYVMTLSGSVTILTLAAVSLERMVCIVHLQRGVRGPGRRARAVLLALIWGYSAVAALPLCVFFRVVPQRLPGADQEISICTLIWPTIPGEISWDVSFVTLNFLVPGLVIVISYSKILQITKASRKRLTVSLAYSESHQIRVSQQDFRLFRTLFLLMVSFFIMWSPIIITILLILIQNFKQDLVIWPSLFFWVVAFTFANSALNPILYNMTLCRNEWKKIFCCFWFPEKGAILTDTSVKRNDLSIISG
Experiment: Measurement of Activity of GPR120 Agonist (Cell-Based Assay), Calcium 5 dye fluorescence
Conditions: CHO-K1 cells expressing Ga16 and hGPR120
In short: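 Gα16/hGPR120 CHO-K1; 18 h plating, 37 °C, 5% CO2; Calcium 5 dye load 1 h; agonist serial dilution, 0.5% DMSO final; fluor Ex485/Em525; response as % of 1% DMSO vehicle.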

SMILES | pEC50
COCCCOc1cccc(-c2cc(F)c(N3CCC(CC(=O)O)C3)c(F)c2)n1 (stereo not drawn) [Example 595, (1-{2,6-difluoro-4-[6-(3-methoxy-propoxy)-pyridin-2-yl]-phenyl}-pyrrolidin-3-yl)-acetic acid] | 5.70 to 6.70
O=C(O)CC1CCN(c2c(F)cc(-c3cccc(OC4CCSCC4)n3)cc2F)C1 (stereo not drawn) [Example 596] | 5.70 to 6.70
CC(C)COc1nc(-c2cc(F)c(N3CCC(CC(=O)O)CC3)c(F)c2)ncc1F [Example 597, {1-[2,6-difluoro-4-(5-fluoro-4-isobutoxy-pyrimidin-2-yl)-phenyl]-piperidin-4-yl}-acetic acid] | 5.70 to 6.70
CCCOc1nc(-c2cc(F)c(N3CCC(CC(=O)O)CC3)c(F)c2)ncc1F [Example 598, {1-[2,6-difluoro-4-(5-fluoro-4-propoxy-pyrimidin-2-yl)-phenyl]-piperidin-4-yl}-acetic acid] | > 6.70
CC(C)CCOc1ccnc(-c2cc(F)c(N3CCC(CC(=O)O)CC3)c(F)c2)n1 [Example 599, (1-{2,6-difluoro-4-[4-(3-methyl-butoxy)-pyrimidin-2-yl]-phenyl}-piperidin-4-yl)-acetic acid] | 5.70 to 6.70
COCCCOc1ccnc(-c2cc(F)c(N3CCC(CC(=O)O)CC3)c(F)c2)n1 [Example 600, (1-{2,6-difluoro-4-[4-(3-methoxy-propoxy)-pyrimidin-2-yl]-phenyl}-piperidin-4-yl)-acetic acid] | 5.70 to 6.70
COCCCOc1cc(C)nc(-c2cc(F)c(N3CCC(CC(=O)O)CC3)c(F)c2)n1 [Example 601, (1-{2,6-difluoro-4-[4-(3-methoxy-propoxy)-6-methyl-pyrimidin-2-yl]-phenyl}-piperidin-4-yl)-acetic acid] | 5.70 to 6.70
COCCOc1cc(C)nc(-c2cc(F)c(N3CCC(CC(=O)O)CC3)c(F)c2)n1 [Example 602, (1-{2,6-difluoro-4-[4-(2-methoxy-ethoxy)-6-methyl-pyrimidin-2-yl]-phenyl}-piperidin-4-yl)-acetic acid] | 5.70 to 6.70
O=C(O)C[C@@H]1CCN(c2c(F)cc(-c3cccc(OCC4CC4)n3)cc2F)C1 [Example 604, {(S)-1-[4-(6-cyclopropylmethoxy-pyridin-2-yll)-2,6-difluoro-phenyl]-pyrrolidin-3-yl}-acetic acid] | > 6.70
CCc1ccc(Oc2ccnc(-c3cc(F)c(N4CCC(CC(=O)O)CC4)c(F)c3)n2)cc1 [Example 606, 2-[1-[2,6-difluoro-4-[6-(4-ethylphenoxy)pyrimidin-2-yl]phenyl]-4-piperidyl]acetic acid] | 5.70 to 6.70
O=C(O)CC1CCN(c2c(F)cc(-c3nccc(Oc4cccc(F)c4)n3)cc2F)CC1 [Example 607, 2-[1-[4-[4-(3-fluorophenoxy)pyrimidin-2-yl]-2,6-difluoro-phenyl]-4-piperidyl]acetic acid] | > 6.70
Cc1cc(Oc2ccc(F)c(F)c2)nc(-c2cc(F)c(N3CCC(CC(=O)O)CC3)c(F)c2)n1 [Example 608, 2-[1-[2,6-difluoro-4-[4-(3,4-fluorophenoxy)-6-methyl-pyrimidin-2-yl]phenyl]-4-piperidyl]acetic acid] | 5.70 to 6.70
O=C(O)CC1CCN(c2c(F)cc(-c3nccc(Oc4ccccn4)n3)cc2F)CC1 [Example 609, 2-[1-[2,6-difluoro-4-[4-(2-pyridyloxy)pyrimidin-2-yl]phenyl]-4-piperidyl]acetic acid] | 5.70 to 6.70
O=C(O)CC1CCN(c2c(F)cc(-c3nccc(Oc4ccc(C(F)(F)F)cc4)n3)cc2F)CC1 [Example 610, 2-[1-[2,6-difluoro-4-[4-[4-(trifluoromethyl)phenoxy]pyrimidin-2-yl]phenyl]-4-piperidyl]acetic acid] | 5.70 to 6.70
O=C(O)CC1CCN(c2c(F)cc(-c3nccc(Oc4cccc(C(F)(F)F)c4)n3)cc2F)CC1 [Example 611, 2-[1-[2,6-difluoro-4-[4-[3-(trifluoromethyl)phenoxy]pyrimidin-2-yl]phenyl]-4-piperidyl]acetic acid] | 5.70 to 6.70
